pIC50, pKi: −log10 of the molar value.

The subject of test [1] is IL-6 release by LL29 fibroblasts. The test can be described thus: NECA-induced IL-6 release by LL29 fibroblasts. The format is cell-based. As to conditions: Homo sapiens, Fibroblast; LL29 cells stimulated with NECA (10 μM), 24 hours, IL-6 ELISA of supernatant. On the procedure:
Stimulation of fibroblasts with adenosine or the adenosine analog 5′-N-ethylcarboxamidoadenosine (NECA) leads to release of the pro-inflammatory and pro-fibrotic cytokine IL-6 which can be prevented by inhibition of the A2b receptor.
Accordingly, confluent cells of the human fibroblast cell line LL29 were treated with the test substances and stimulated with NECA (10 μM). After an incubation time of 24 hours, the cell supernatant is removed and human IL-6 in the cell supernatant is determined by ELISA (Quantikine® IL6 ELISA, R&D Systems, Minneapolis, USA).
Table 3 below lists the IC50 values obtained in this way for inhibition of IL-6 release for representative working examples (in some cases as means of a plurality of independent individual determinations and rounded to two significant figures; it may also be the case here that various independent preparations of the respective working example have been used): […]

Test [2] deals with T1, human adenosine A2b receptor (Homo sapiens, UniProt P29275).
T1 sequence (P29275 1-332): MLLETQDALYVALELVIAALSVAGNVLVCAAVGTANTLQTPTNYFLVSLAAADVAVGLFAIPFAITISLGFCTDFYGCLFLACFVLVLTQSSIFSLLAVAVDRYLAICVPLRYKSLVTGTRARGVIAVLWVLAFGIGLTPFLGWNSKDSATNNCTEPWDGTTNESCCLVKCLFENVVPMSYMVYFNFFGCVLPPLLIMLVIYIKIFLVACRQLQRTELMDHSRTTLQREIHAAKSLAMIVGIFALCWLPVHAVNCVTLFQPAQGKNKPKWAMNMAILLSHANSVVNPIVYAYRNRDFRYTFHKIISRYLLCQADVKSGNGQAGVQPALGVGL
The test can be described thus: Cellular in vitro reporter gene test for A2b receptor activity (antagonism of NECA). The format is cell-based. The arrangement: expressed in transfected cells; host or cells: CHO-K1 (Chinese hamster ovary) with CRE-luciferase reporter. As to conditions: recombinant CHO-K1 cells, CRE-luciferase reporter, co-incubation with EC50 concentration of NECA, 3 hours. The method in brief: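 Antagonism measured as block of NECA-induced, cAMP/CRE-dependent luciferase expression in recombinant A2b CHO-K1 cells. NECA used at the EC50 set in a pre-experiment on each test day; luminescence detected after 3 h. Reported as IC50, partly averaged and rounded to two significant figures.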

Test [3] concerns the target T2, human adenosine A1 receptor (Homo sapiens, UniProt P30542).
T2 construct: expressed in transfected cells; host or cells: CHO
T2 sequence (P30542 1-326): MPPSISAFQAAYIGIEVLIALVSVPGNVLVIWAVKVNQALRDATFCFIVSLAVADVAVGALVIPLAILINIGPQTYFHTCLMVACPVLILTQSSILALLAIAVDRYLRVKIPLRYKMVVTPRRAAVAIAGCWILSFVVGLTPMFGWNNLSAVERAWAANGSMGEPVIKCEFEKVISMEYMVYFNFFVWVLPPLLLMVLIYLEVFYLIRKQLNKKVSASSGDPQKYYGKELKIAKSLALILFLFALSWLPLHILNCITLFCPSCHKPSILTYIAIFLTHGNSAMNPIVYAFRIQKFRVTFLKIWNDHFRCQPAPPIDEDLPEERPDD
The test can be described thus: Adenosine receptor radioligand binding assay, A1 receptor ([3H]-DPCPX, CHO membranes). As to conditions: membrane preparations of CHO cells, radioligand [3H]-DPCPX. The protocol: (§1) The binding properties of the test compounds on adenosine receptors were determined in binding studies with radioligands. For this purpose, membrane preparations of the human adenosine receptor subtypes were produced from cell lines having recombinant receptor expression (CHO cells for the A1 receptor, HEK293 cells for the A2a, A2b and A3 receptors). The following radioligands were used in the experiments: [^3H]-DPCPX for the A1 receptor, [^3H]-CGS 21680 for the A2a receptor, [^3H]-CPX for the A2b receptor and [^125I]-AB-MECA for the A3 receptor. The test substances were each tested in 8 different concentrations and 2 repeat tests per concentration. The displacement of the particular radioligand by the test compound was expressed as percentage inhibition of the specific binding of the controls.
(§2) The IC50 values (concentration which brings about half-maximum inhibition of the specific binding of the controls) and the Hill coefficients (nH) were determined by a non-linear regression analysis, using the competition curves obtained from the mean values of the repeat tests and conducting a curve fit according to the Hill equation:
(§3) (Y=specific binding; A=left-hand asymptote of the curve; D=right-hand asymptote of the curve; C=substance concentration; C50=IC50; nH=rise factor).
(§4) The inhibition constant (Ki) was calculated by the Cheng-Prusoff equation:
(§5) (L=concentration of the radioligand in the assay; KD=receptor affinity of the radioligand for the receptor, determined with a Scatchard plot).
(§6) [Literature: A1 receptor: Townsend-Nicholson, A. und Schofield, P. R., J. Biol. Chem. 269: 2373-2376 (1994); A2a receptor: Luthin, D. R. et al., Mol. Pharmacol. 47: 307-313 (1995); A2b receptor: Stehle, J. H. et al., Mol. Endocrinol. 6: 384-393 (1992) and Linden et al., Mol. Pharmacol. 56: 705-713 (1999); A3 receptor: Salvatore, C. A. et al., Proc. Natl. Acad. Sci. U.S.A. 90: 10365-10369 (1993) and Jacobson, K. A. et al., Neuropharmacology 36: 1157-1165 (1997)].
(§7) Table 2 below lists the K1 values thus determined from these binding assays for representative working examples (in some cases as means of a plurality of independent individual determinations and rounded to two significant figures; it may also be the case here that various independent preparations of the respective working example have been used): […]

The target of test [4] is T3, human adenosine A2a receptor (Homo sapiens, UniProt P29274).
T3 construct: expressed in transfected cells; host or cells: HEK293
The experiment in a line: Adenosine receptor radioligand binding assay, A2a receptor ([3H]-CGS 21680, HEK293 membranes). As to conditions: membrane preparations of HEK293 cells, radioligand [3H]-CGS 21680. The protocol:
as §1, §2, §3, §4, §5, §6, §7

Test [5] deals with T4, human adenosine A3 receptor (Homo sapiens, UniProt P0DMS8).
T4 construct: expressed in transfected cells; host or cells: HEK293
T4 sequence (P0DMS8 1-318): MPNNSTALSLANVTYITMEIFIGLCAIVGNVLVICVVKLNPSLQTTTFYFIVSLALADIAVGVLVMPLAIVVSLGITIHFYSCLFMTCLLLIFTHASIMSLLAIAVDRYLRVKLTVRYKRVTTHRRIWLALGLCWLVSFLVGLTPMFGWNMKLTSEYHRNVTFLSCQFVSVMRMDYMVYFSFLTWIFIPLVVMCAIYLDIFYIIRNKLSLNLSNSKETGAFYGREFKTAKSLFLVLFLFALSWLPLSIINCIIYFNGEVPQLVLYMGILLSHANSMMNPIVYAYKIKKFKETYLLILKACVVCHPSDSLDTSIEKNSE
The experiment in a line: Adenosine receptor radioligand binding assay, A3 receptor ([125I]-AB-MECA, HEK293 membranes). The conditions noted are these: membrane preparations of HEK293 cells, radioligand [125I]-AB-MECA. The protocol: as §1, §2, §3, §4, §5, §6, §7

Test [6] concerns the target T1, human adenosine A2b receptor. The experiment in a line: Adenosine receptor radioligand binding assay, A2b receptor ([3H]-CPX, HEK293 membranes). The arrangement: expressed in transfected cells. As to conditions: membrane preparations of HEK293 cells, radioligand [3H]-CPX. On the procedure: as §1, §2, §3, §4, §5, §6, §7
Test [7] concerns bladder tumours and breast tumours. As to conditions: animal models of bladder tumours and breast tumours; cited from earlier work.

T3 sequence (P29274 whole entry): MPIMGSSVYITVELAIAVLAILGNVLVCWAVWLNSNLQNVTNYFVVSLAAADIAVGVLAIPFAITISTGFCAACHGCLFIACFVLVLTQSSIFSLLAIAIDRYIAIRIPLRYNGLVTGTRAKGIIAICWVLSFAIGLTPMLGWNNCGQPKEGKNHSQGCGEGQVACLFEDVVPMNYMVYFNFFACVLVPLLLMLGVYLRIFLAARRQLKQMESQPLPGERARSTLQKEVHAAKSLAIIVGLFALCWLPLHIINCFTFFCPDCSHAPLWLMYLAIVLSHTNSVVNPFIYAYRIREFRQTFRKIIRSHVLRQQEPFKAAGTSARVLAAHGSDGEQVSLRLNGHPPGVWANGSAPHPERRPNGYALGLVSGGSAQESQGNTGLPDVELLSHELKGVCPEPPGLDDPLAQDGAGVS

In the case of `COCCn1c(=O)n(C2CC2)c(=O)c2c(C)c(CN3CCNC3=NC(=O)OC)sc21` [Example 26, Methyl [1-{[3-cyclopropyl-1-(2-methoxyethyl)-5-methyl-2,4-dioxo-1,2,3,4-tetrahydrothieno[2,3-d]pyrimidin-6-yl]methyl}imidazolidin-2-ylidene]carbamate], the pIC50 was 7.92 in test [1] and 8.08 in test [2].

`COCCn1c(=O)n([C@H]2C[C@@H]2C)c(=O)c2c(C)c(CN3CCNC3=O)sc21` [Example 315, 1-(2-Methoxyethyl)-5-methyl-3-[(1S,2S)-2-methylcyclopropyl]-6-[(2-oxoimidazolidin-1-yl)methyl]thieno[2,3-d]pyrimidine-2,4(1H,3H)-dione]: the pKi in test [3] was 5.47; in test [4], 6.32; in test [5] it was 5.43; in test [6] it was 8.43. In addition, the pIC50 in test [1] is 8.31; in test [2] it was 8.42.

With `Cc1c(Cn2nc[nH]c2=O)sc2c1c(=O)n(C1(C)CC1)c(=O)n2CCOC(F)(F)F` [Example 76, 5-Methyl-3-(1-methylcyclopropyl)-6-[(5-oxo-4,5-dihydro-1H-1,2,4-triazol-1-yl)methyl]-1-[2-(trifluormethoxy)ethyl]thieno[2,3-d]pyrimidine-2,4(1H,3H)-dione], the pIC50 was 7.96 in test [1] and 8.07 in test [2].

As to `COCCn1c(=O)n(C2(C)CC2)c(=O)c2c(C)c(CN3CCNC3=O)sc21` [Example 70, 1-(2-Methoxyethyl)-5-methyl-3-(1-methylcyclopropyl)-6-[(2-oxoimidazolidin-1-yl)methyl]thieno[2,3-d]pyrimidine-2,4(1H,3H)-dione], the negative-log Ki (pKi) in test [3] was < 5.00; in test [4], 5.32; in test [5], < 5.00; in test [6], 8.24. In test [2], the pIC50 was 7.82.

Regarding `Cc1c(Cn2nc[nH]c2=O)sc2c1c(=O)n(C1CC1)c(=O)n2CCC(F)(F)F` [Example 15, 3-Cyclopropyl-5-methyl-6-[(5-oxo-4,5-dihydro-1H-1,2,4-triazol-1-yl)methyl]-1-(3,3,3-trifluoropropyl)thieno[2,3-d]pyrimidine-2,4(1H,3H)-dione], the pKi in test [3] is 5.10; in test [4], 5.52; in test [5] it was < 5.00; in test [6], 8.44. In addition, the pIC50 in test [2] is 7.85.

For the compound `COCCn1c(=O)n(C2CC2C)c(=O)c2c(C)c(CN3CCNC3=O)sc21` (single isomer, unassigned) [Example 96, 1-(2-Methoxyethyl)-5-methyl-3-(2-methylcyclopropyl)-6-[(2-oxoimidazolidin-1-yl)methyl]thieno[2,3-d]pyrimidine-2,4(1H,3H)-dione], the pKi in test [3] is 5.47; in test [4], 6.32; in test [5] it was 5.43; in test [6], 8.43. The pIC50 in test [1] was 8.31; in test [2], 8.42.

Regarding `Cc1c(CN2CCNC2=O)sc2c1c(=O)n(C1CC1)c(=O)n2CCCF` [Example 5, 3-Cyclopropyl-1-(3-fluoropropyl)-5-methyl-6-[(2-oxoimidazolidin-1-yl)methyl]thieno[2,3-d]pyrimidine-2,4(1H,3H)-dione], the pIC50 is 7.68 in test [1] and 7.92 in test [2].

On to `CCCn1c(=O)n(C2CC2)c(=O)c2[nH]c(-c3ccc(N(CC)C(=O)c4cccnc4)nc3)nc21` [ATL801], for which, in test [7], the “interferon γ level” value was “significant increase”, the metastasis entry is reported as “distinct reduction in metastasis”, the “number of tumour antigen-presenting dendritic cells” value is given as “increase” and the tumour growth result is given as “slowing of tumour growth”.

For `COC(=O)N=C1NCCN1Cc1sc2c(c1C)c(=O)n(C1CC(C)(C)C1)c(=O)n2CCC(F)(F)F` [Example 166, Methyl [1-{[3-(3,3-dimethylcyclobutyl)-5-methyl-2,4-dioxo-1-(3,3,3-trifluoropropyl)-1,2,3,4-tetrahydrothieno[2,3-d]pyrimidin-6-yl]methyl}imidazolidin-2-ylidene]carbamate], the pIC50 in test [2] is 8.33.

On to `Cc1c(CN2CCNC2=O)sc2c1c(=O)n([C@H]1C[C@@H]1C)c(=O)n2CC1COC1` [Example 285, 5-Methyl-3-[(1S,2S)-2-methylcyclopropyl]-1-(oxetan-3-ylmethyl)-6-[(2-oxoimidazoliddin-1-yl)methyl]thieno[2,3-d]pyrimidine-2,4(1H,3H)-dione], for which, in test [2], the pIC50 is 8.39.

As for `Cc1c(CN2CCNC2=O)sc2c1c(=O)n(C1CC1C)c(=O)n2CC1CC(F)(F)C1` (single isomer, unassigned) [Example 253, 1-[(3,3-Difluorocyclobutyl)methyl]-5-methyl-3-(2-methylcyclopropyl)-6-[(2-oxoimidazolidin-1-yl)methyl]thieno[2,3-d]pyrimidine-2,4(1H,3H)-dione], in test [2], the pIC50 is 8.57.

Consider `COCCn1c(=O)n(C2CC2C)c(=O)c2c(C)c(CN3CCNC3=O)sc21` (racemic) [Example 94, 1-(2-Methoxyethyl)-5-methyl-3-(2-methylcyclopropyl)-6-[(2-oxoimidazolidin-1-yl)methyl]thieno[2,3-d]pyrimidine-2,4(1H,3H)-dione], for which, in test [2], the pIC50 is 8.14.

`Cc1c(CN2CCNC2=O)sc2c1c(=O)n(C1CC1C)c(=O)n2C[C@H]1CCCO1` (single isomer, unassigned) [Example 287]: the negative-log IC50 (pIC50) in test [2] was 8.55.

The record behind these values is US20200016159A1, “N3-CYCLICALLY SUBSTITUTED THIENOURACILS AND USE THEREOF” (Bayer Aktiengesellschaft, priority 2016, published 2020).
